Test results as given in ChEMBL document CHEMBL1201862, “PubChem BioAssay data set” (2004).
The source made the active and inactive calls. Cut-off read from the data, not from the text of the source, for most assays here: actives have a measured EC50 and inactives only a lower limit.

How the values were obtained:
[1] = target: T1, Replicative DNA helicase DnaB (Mycobacterium tuberculosis, UniProt P9WMR3); experiment: DnaB intein splicing inhibitors, dose response, biochemical, cell-free fluorescence (AID 449749); assay type: functional
T1 sequence (P9WMR3 whole entry): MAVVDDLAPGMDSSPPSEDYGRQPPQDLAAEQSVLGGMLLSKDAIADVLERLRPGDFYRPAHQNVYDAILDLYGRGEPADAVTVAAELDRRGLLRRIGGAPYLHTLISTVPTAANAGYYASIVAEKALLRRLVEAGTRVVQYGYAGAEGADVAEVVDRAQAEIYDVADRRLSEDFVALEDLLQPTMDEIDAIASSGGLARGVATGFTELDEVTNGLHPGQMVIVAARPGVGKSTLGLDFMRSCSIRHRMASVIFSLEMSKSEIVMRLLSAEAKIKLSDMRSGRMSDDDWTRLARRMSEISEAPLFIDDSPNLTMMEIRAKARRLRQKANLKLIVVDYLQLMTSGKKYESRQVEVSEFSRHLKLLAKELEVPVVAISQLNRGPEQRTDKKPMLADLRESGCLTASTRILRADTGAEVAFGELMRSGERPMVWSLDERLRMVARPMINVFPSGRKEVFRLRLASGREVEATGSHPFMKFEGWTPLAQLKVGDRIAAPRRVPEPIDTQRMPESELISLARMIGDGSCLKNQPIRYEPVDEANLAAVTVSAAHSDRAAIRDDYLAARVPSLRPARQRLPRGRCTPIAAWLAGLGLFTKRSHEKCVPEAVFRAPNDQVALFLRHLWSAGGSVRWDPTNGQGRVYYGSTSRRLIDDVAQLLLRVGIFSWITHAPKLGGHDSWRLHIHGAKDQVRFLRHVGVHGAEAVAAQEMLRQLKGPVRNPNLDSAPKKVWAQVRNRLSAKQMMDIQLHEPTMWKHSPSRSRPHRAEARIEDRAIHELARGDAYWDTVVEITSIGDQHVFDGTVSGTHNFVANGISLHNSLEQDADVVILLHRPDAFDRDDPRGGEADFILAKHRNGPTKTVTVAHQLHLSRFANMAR

Protein RecA = target: T2, Protein RecA (Mycobacterium tuberculosis, UniProt P9WHJ3); experiment: Fluorescence Cell-Free Homogeneous Dose Retest to Identify Inhibitors of RecA-Intein Splicing Activity. [Related pubchem assays (depositor defined):AID2097, AID2223, AID489010, AID492950]; assay type: functional
T2 sequence (P9WHJ3 whole entry): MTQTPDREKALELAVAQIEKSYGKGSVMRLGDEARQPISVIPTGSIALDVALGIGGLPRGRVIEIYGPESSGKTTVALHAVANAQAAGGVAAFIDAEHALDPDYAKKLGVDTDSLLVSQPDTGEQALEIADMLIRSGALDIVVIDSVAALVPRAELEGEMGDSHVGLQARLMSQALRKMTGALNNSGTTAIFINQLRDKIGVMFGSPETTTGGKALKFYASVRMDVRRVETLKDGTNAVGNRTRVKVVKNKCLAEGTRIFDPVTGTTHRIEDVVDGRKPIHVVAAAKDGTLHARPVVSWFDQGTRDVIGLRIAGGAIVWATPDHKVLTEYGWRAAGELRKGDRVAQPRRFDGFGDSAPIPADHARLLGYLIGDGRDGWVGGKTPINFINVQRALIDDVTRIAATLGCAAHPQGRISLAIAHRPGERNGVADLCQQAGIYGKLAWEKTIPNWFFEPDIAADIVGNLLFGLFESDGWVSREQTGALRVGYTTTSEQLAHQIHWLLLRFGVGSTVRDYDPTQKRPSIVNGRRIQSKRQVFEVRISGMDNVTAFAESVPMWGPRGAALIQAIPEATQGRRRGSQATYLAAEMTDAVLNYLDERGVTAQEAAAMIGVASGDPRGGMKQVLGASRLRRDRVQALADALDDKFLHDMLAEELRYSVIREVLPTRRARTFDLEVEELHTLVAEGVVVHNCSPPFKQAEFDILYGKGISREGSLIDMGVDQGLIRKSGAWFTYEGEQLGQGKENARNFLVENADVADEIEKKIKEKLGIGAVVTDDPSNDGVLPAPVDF

[2] = target: Luciferin 4-monooxygenase (Photinus pyralis, UniProt P08659); experiment: inhibition of purified Photinus pyralis luciferase – biochemical, luminescence, dose response (AID 1891)
Luciferin 4-monooxygenase, sequence (P08659 whole entry): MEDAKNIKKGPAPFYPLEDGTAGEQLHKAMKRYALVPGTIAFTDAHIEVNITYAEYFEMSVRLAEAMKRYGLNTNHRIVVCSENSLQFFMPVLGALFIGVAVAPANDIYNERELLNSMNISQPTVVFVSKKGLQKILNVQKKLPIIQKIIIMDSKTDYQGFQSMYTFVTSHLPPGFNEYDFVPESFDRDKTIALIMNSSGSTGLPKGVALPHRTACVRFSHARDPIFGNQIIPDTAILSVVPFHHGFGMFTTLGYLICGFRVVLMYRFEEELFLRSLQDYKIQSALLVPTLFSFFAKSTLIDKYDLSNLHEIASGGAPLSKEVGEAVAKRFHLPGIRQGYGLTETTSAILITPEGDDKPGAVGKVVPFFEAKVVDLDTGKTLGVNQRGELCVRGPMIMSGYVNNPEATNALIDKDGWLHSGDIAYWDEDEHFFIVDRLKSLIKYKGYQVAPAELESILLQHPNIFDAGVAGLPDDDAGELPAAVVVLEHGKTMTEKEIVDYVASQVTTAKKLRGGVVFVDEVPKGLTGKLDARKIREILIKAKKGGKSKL

[3] = Luminescence Cell-Based Dose Confirmation HTS to Identify Inhibitors of Platelet Dense Granule Release. [Related pubchem assays: 1663 (Primary HTS), 1678 (Summary of Project)]; assay type: functional
cells = assay type: functional
[4] = NIH-3T3 fibroblast cytotoxicity, dose response, cytotoxicity control, cell-based, fluorescence, Alamar Blue, secondary assay (AID 2327); assay type: functional;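 note: NIH-3T3 mouse fibroblasts cultured with fluconazole at 8 µg/mL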
[5] = fluconazole-exposed Candida albicans growth modulators – fluorescence, retest, confirmation (AID 2467); assay type: functional, cell-based
Large T antigen = Large T antigen (Simian virus 40, UniProt P03070); assay type: functional, Betapolyomavirus macacae;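 note: Confirmatory-stage PubChem screen for compounds that inhibit SV40 T antigen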
Large T antigen, sequence (P03070 whole entry): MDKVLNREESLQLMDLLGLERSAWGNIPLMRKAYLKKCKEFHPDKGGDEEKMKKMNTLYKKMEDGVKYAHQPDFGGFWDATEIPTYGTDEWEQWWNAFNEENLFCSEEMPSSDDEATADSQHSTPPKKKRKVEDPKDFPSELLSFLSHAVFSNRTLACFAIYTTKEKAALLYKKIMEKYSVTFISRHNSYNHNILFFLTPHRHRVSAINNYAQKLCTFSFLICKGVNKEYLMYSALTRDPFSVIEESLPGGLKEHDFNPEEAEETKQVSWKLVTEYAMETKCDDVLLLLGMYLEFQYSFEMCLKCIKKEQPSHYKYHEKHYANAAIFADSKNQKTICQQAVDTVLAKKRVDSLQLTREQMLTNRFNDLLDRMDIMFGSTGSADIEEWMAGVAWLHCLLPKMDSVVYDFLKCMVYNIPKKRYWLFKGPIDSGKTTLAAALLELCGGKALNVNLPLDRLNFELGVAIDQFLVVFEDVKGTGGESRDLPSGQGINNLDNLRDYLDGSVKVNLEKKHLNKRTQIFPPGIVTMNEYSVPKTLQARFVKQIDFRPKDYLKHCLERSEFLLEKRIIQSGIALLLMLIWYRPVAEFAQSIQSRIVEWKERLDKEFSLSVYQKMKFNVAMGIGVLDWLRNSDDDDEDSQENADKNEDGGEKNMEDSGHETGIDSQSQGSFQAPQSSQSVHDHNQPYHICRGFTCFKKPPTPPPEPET

[6] = target: T3, Rac GTPase-activating protein 1 (Homo sapiens, UniProt Q9H0H5); experiment: blockers of MgcRacGAP-driven Rac1 GTP hydrolysis – biochemical, ADP Hunter fluorescence, primary and confirmatory, confirmation (AID 624330); assay type: functional
T3 sequence (Q9H0H5 whole entry): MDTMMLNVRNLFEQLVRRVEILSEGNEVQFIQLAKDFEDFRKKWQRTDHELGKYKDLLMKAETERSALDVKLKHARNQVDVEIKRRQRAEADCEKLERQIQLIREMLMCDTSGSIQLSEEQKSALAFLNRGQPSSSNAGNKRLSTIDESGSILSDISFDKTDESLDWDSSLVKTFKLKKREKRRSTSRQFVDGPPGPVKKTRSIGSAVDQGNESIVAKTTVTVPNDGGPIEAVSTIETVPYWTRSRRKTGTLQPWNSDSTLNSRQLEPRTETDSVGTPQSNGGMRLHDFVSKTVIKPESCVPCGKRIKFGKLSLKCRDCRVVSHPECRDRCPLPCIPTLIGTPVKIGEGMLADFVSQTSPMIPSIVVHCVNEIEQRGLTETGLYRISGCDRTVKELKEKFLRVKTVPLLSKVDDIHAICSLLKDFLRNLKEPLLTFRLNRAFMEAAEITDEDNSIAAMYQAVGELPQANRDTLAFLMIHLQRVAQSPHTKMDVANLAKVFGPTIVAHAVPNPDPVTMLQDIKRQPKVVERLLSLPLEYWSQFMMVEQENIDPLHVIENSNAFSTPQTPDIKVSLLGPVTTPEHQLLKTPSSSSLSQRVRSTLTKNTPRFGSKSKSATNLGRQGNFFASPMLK

[7] = Trypanosoma cruzi growth suppression in host cells – NIH3T3 host cells, beta-gal luminescence, confirmation (AID 2044); assay type: functional, cell-based;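 note: intracellular parasites grown in NIH/3T3 mouse fibroblasts as host cells; luminescent beta-galactosidase reporter signal from transgenic T. cruzi replicating inside host cells; inhibitors lower the luminescence signal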
[8] = NIH3T3 cell viability loss – ATP luminescence, mouse fibroblasts, counter-screen, dose response (AID 2010); assay type: functional, cell-based;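 note: cells exposed to compound for about 90 hours before reading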
[9] = Luminescence Cell-Based Dose Retest to Confirm Inhibitors of Cancer Stem Cells. [Related pubchem assays (depositor defined):AID2717, AID2721]; assay type: functional, Homo sapiens; conditions: Homo sapiens
[10] = target: T4, Microphthalmia-associated transcription factor (Homo sapiens, UniProt O75030); experiment: reducers of TRPM1 reporter luminescence, concentration series – cell-based, SK-MEL-5, cherry-picked, set 3, MITF inhibitor project, dose response (AID 493073); assay type: functional;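 note: SK-MEL-5 melanoma cells with luciferase driven by the MITF target TRPM1 promoter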
T4 sequence (O75030 whole entry): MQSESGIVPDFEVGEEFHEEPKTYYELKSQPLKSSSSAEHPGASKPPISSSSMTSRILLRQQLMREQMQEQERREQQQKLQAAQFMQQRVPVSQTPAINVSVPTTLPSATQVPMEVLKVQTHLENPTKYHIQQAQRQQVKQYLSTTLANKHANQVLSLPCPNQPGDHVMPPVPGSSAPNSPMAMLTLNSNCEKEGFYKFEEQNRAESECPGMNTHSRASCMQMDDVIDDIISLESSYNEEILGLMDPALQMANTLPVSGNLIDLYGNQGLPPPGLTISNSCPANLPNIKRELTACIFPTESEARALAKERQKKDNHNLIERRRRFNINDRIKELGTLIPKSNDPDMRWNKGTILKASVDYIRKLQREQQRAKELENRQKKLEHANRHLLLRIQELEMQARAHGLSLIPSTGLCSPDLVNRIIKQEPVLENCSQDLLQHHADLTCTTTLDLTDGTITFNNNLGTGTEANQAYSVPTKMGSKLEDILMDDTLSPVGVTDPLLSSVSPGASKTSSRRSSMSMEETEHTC

[11] = blockers of HIV-1 envelope-mediated cell-cell fusion – cherry-pick, dose response (AID 652057); assay type: functional, cell-based
[12] = luciferase reporter signal suppression in cells – H4 neuroglioma cells, luminescence, dose response (AID 1990); assay type: functional, cell-based
[13] = Luminescence Cell-Based Dose Response HTS to Identify Inhibitors of 5'UTR Stem-Loop Driven Prion Protein mRNA Translation in H4 Neuroglioblastoma Cells. [Related pubchem assays: 1827 (Project Summary), 1813 (Primary HTS)]; assay type: functional
[14] = alpha-synuclein stem-loop luciferase translation blockers – H4 neuroglioma cells, luminescence, confirmation (AID 1988); assay type: functional, cell-based

COCc1n[nH]c2c1C(c1ccccc1F)C(C#N)=C(N)O2 (stereo not drawn)
AC50 [1]: 36.4 µM (active) | EC50 (Protein RecA): 6.49 µM (active)

CCN1CCN(Cc2nc3c(c(=O)[nH]c(=O)n3C)n2Cc2ccccc2Cl)CC1
EC50 [2]: > 112 µM (not active) | EC50 [3]: 18.6 µM (active)

COc1ccc(NC(=O)c2cnn(-c3ccccc3)c2C)cc1
EC50 [2]: 16.6 µM (active) | EC50 [3]: 6.03 µM (active)

COc1cnn(C2CCCCC2)c(=O)c1O
IC50 (cells): 33.5 µM (active)

O=C(O)/C=C\C(=O)Nc1ccc(Oc2ccc(Br)cc2)cc1
AC50 [1]: 14.6 µM (active) | EC50 (Protein RecA): 11 µM (active)

COc1ccccc1NC(=O)c1cc2n(n1)C(C(F)(F)F)CC(c1ccc3c(c1)OCO3)N2 (stereo not drawn)
EC50 [2]: > 112 µM (not active) | EC50 [3]: > 112 µM (not active)

CC1CCCCN1S(=O)(=O)c1ccc(NC(=O)c2cccc(-n3cnnn3)c2)cc1 (stereo not drawn)
EC50 [4]: > 150 µM (inactive)

Cc1ccc(S(=O)(=O)CC(C)N2CCOCC2)c(S(=O)(=O)CC(C)N2CCOCC2)c1 (stereo not drawn)
EC50 [4]: > 160 µM (inactive) | EC50 [5]: 6.26 µM (active)

Cc1ccc(OC(S)=Nc2ccc(O)cc2)cc1
IC50 (Large T antigen): 13 µM (active) | IC50 [6]: 31.6 µM (active)

CCCCOC(=O)c1ccc(OC(=O)N2CCOCC2)cc1
EC50 [2]: > 112 µM (not active) | EC50 [3]: > 112 µM (not active)

COc1cc2c(cc1OC)-c1cc(Nc3cccc(C)c3)nc(=O)n1CC2
EC50 [2]: > 112 µM (not active) | EC50 [3]: 4.03 µM (active)

CCOC(=O)C1CCN(C(c2ccccn2)c2c(C)[nH]c3ccccc23)CC1 (stereo not drawn)
EC50 [2]: > 112 µM (not active) | EC50 [3]: 16.5 µM (active)

COC(=O)c1ccc(NC(=O)C(=O)c2cccn2C)cc1
EC50 [2]: 1.74 µM (active) | EC50 [3]: 2.39 µM (active)

O=C1/C(=C\c2ccc(O)c(O)c2)N=C2CCCCCN12
IC50 (Large T antigen): 6.68 µM (active) | IC50 [6]: 17.4 µM (active)

O=[N+]([O-])c1ccc(CN2CCN(c3ccc(Cl)cc3)CC2)o1
EC50 [7]: 0.758 µM (active) | EC50 [8]: > 60 µM (not active) | IC50 (cells): < 0.1 µM (active)

O=C(Nc1ccc2c(c1)OCO2)Nc1ccccc1F
EC50 [2]: 1.77 µM (active) | EC50 [3]: 3.42 µM (active)

CCn1c(SCC(=O)N(C)c2c(N)n(Cc3ccccc3)c(=O)[nH]c2=O)nc2ccccc21
EC50 [2]: > 112 µM (not active) | EC50 [3]: > 112 µM (not active)

CSc1nc(-c2ccco2)nn1C(=O)c1cccs1
AC50 [1]: 28.3 µM (active) | EC50 (Protein RecA): 24.7 µM (active)

CCOC(=O)c1cc2cc(OC)ccc2nc1C
EC50 [2]: > 112 µM (not active) | EC50 [3]: > 112 µM (not active)

C=CCn1c(S)nnc1-c1cc(Cl)ccc1OC
EC50 [3]: > 112 µM (not active)

CCc1n[nH]c(SCC(=O)Nc2ccc(N(C)C)cc2)n1
IC50 (Large T antigen): 15.5 µM (active)

O=C1NC(c2ccc(-c3ccccc3[N+](=O)[O-])o2)C(C(=O)c2ccc(Cl)cc2)C(O)(C(F)(F)F)N1 (stereo not drawn)
AC50 [9]: 9.56 µM (active) | AC50 [1]: 4.27 µM (active)

COc1cc(Cn2nnc3ccccc32)ccc1O
IC50 (Large T antigen): 7.55 µM (active)

O=C1NC(=O)C(=Cc2ccc(-c3ccc(Cl)cc3)o2)C(=O)N1
AC50 [10]: 9.2 µM (active) | IC50 (cells): > 50 µM (active)

CC(=O)Oc1c(C(=O)c2nnc(C)o2)c(=O)n(Cc2ccccc2)c2ccccc12
AC50 [10]: 6.98 µM (active)

Cc1n[nH]c2c1C(c1c(C)nn(C)c1C)C(C#N)=C(N)O2 (stereo not drawn)
AC50 [1]: 4.2 µM (active) | EC50 (Protein RecA): 4.86 µM (active)

CC(C)(C)NC(=O)CCN(/N=C/c1ccc([N+](=O)[O-])o1)C1=NS(=O)(=O)c2ccccc21
AC50 [10]: 7.18 µM (active)

Cc1ccc(S(=O)(=O)Nc2ccc3c(c2)CC(=O)N([C@@H](C)CO)C[C@H](C)[C@@H](CN(C)Cc2ccc(-c4ccccc4)cc2)O3)cc1
AC50 [11]: 20.2 µM (active)

COc1ccc(C(=O)NC(=O)Nc2cc(C)ccn2)cc1
EC50 [12]: 1.67 µM (active) | EC50 [13]: 0.533 µM (active) | EC50 [14]: 0.367 µM (active) | AC50 [10]: 4.96 µM (active)

CCn1c(C)nc2cc(C(=O)N/N=C/c3ccc(OC)c(O)c3)ccc21
IC50 (Large T antigen): 4.76 µM (active) | IC50 [6]: 80 µM (active)

O=C(Oc1ccc(/C=N/O)cc1)c1ccccc1Cl
IC50 (cells): 22.6 µM (active)

O=c1cc(C23CC4CC(CC(C4)C2)C3)[nH][nH]1
AC50 [1]: 2.85 µM (active) | EC50 (Protein RecA): 2.52 µM (active)
